Measured values taken from US20170226518A1, “COMPOSITIONS AND METHODS FOR TREATING CANCER” (Autotelic LLC, priority 2016, published 2017).
In the oligonucleotide strings, read from the 5' end, every base follows the letter of its sugar. An asterisk marks phosphorothioate; unmarked linkages are phosphodiester. Other units and linkages are bracketed, terminal groups are in braces. A string of capitals states the bases alone. d = 2'-deoxy (DNA)

What was measured:
[1] = Acute single dose toxicity study in mice; type: in vivo; settings: 1 of 10 mice died (LLD10)
Method: (§1) The clinical starting dose for the 7-days-on and 7-days-off schedule was based on the Lowest-Observed-Adverse-Effect-Level (LOAEL) devoid of severe toxicity in Cynomolgus monkeys as the most relevant species. This LOAEL of 4 mg/kg body weight (b.w.)/day is equivalent to approximately 1.3 mg/kg b.w./day or 48 mg/m^2/day on a body surface area basis in human adults. These numbers were rounded down and the safe starting dose was defined at 40 mg/m^2/day, equivalent to approximately 1 mg/kg b.w./day in humans. An alternative approach would have been based on the lowest lethal dose (LLD) of 300 mg/kg b.w. obtained in the acute single dose toxicity study in mice (in rats it was determined at 1000 mg/kg), at which 1 of 10 mice died (LLD10). According to the standard method, 10% of this dose (30 mg/kg) on a body surface area basis would then be defined as the clinical starting dose resulting in 90 mg/m^2/day. In the end, the lower of the two alternatives was chosen as starting dose.

[2] = Acute single dose toxicity in rats; type: in vivo
Method: as §1

[3] = system: TGFβ2; experiment: TGFβ2 secretion/expression in HUP-T3 pancreatic cancer cells; type: cell-based; settings: 10 μM AP12009 as monotherapy
Method: The aim of the study was to determine the effect of AP12009 (trabedersen) treatment in combination with 5-Fluorouracil (5-FU) on TGFβ2 secretion and on cellular proliferation of HUP-T3 pancreatic cancer cells and WiDr colon cancer cells in vitro.
10 μM of AP12009 as monotherapy decreased cell proliferation (53% proliferation of untreated control) and TGFβ2 expression (42% of untreated control) in HUP-T3 cells.

[4] = system: A-172 glioma cells; experiment: Migration of A-172 glioma cells; type: cell-based; settings: AP12009 10 μM as monotherapy, compared with untreated control
Method: A-172 glioma cells were treated with a combination of AP12009 (trabedersen) 0 to 10 μM) and different concentrations of TMZ (temozolomide) for 7 days (treatment schedule 2*2/1*3 d).

trabedersen: TGFβ2 specific phosphorothioate antisense oligodeoxynucleotide with the sequence 5′-CGGCATGTCTATTTTGTA-3′ (SEQ ID No: 1) (antisense dC*dG*dG*dC*dA*dT*dG*dT*dC*dT*dA*dT*dT*dT*dT*dG*dT*dA)
lowest lethal dose (LLD) [1]: 300 mg/kg b.w.
lowest lethal dose (LLD) [2]: 1000 mg/kg
TGFβ2 expression (% of untreated control) [3]: 42%
effect on migration of A-172 cells [4]: did not affect migration
